# Source: patent publication US20250282768A1 (Janssen Pharmaceutica NV, priority 2022, published 2025)
# Test system: p-IKKa levels in L363 (NIK translocated multiple myeloma) cells
# Test: Assay 2: Effect of compounds on p-IKKa levels in L363 (NIK translocated multiple myeloma) cells
# Type: cell-based
# Settings: Homo sapiens, L-363, 6 h, read-out: Assay 2 IC50 (nM), p-IKKa (Ser 176/180) in BAFF stimulated L363 cells with MG132, 6 h; average if tested more than once
# How it was run: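 Read-out is p-IKKa Ser176/180 by AlphaLISA SureFire in lysates. Cells were BAFF-primed (250 ng/ml) overnight or left unstimulated, then exposed 6 h at 37 °C to compound with MG132 (10 μM), 0.3% DMSO. IC50 from sigmoidal curve fit, normalized between stimulated and unstimulated controls.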
row,SMILES,IC50
1,"[2H]C1([2H])N(C)C(=O)[C@](O)(c2cc(-c3cccc(-c4ccnc(Nc5ccn(C)n5)n4)n3)no2)C1([2H])[2H] [Example 8, (R)-3-Hydroxy-1-methyl-3-(3-(6-(2-((1-methyl-1H-pyrazol-3-yl)amino)pyrimidin-4-yl)pyridin-2-yl)isoxazol-5-yl)pyrrolidin-2-one-4,4,5,5-d4]",< 50 nM
2,"COc1nn(C(CO)CO)cc1Nc1nccc(-c2cccc(-c3cc([C@]4(O)CCN(C)C4=O)on3)n2)n1 [Example 9, (R)-3-(3-(6-(2-((1-(1,3-Dihydroxypropan-2-yl)-3-methoxy-1H-pyrazol-4-yl)amino)pyrimidin-4-yl)pyridin-2-yl)isoxazol-5-yl)-3-hydroxy-1-methylpyrrolidin-2-one]",50 to 500 nM
3,"CN1CCC(n2cc(Nc3nccc(-c4cccc(-c5cc([C@@]6(O)C(=O)N(C)CC6(F)F)on5)n4)n3)cn2)CC1 [Example 10, (R)-4,4-Difluoro-3-hydroxy-1-methyl-3-(3-(6-(2-((1-(1-methylpiperidin-4-yl)-1H-pyrazol-4-yl)amino)pyrimidin-4-yl)pyridin-2-yl)isoxazol-5-yl)pyrrolidin-2-one]",50 to 500 nM
4,"CN1CC[C@@](O)(c2cc(-c3cccc(-c4ccnc(N[C@H]5CCOC5)n4)c3)no2)C1=O [Example 11, (R)-3-Hydroxy-1-methyl-3-(3-(3-(2-(((S)-tetrahydrofuran-3-yl)amino)pyrimidin-4-yl)phenyl)isoxazol-5-yl)pyrrolidin-2-one]",> 500 nM
5,"CN1CC[C@@](O)(c2cc(-c3cccc(-c4ccnc(N[C@@H]5CCOC5)n4)c3)no2)C1=O [Example 12, (R)-3-Hydroxy-1-methyl-3-(3-(3-(2-(((R)-tetrahydrofuran-3-yl)amino)pyrimidin-4-yl)phenyl)isoxazol-5-yl)pyrrolidin-2-one]",> 500 nM
6,"CN1CC[C@@](O)(c2cc(-c3cccc(-c4ccnc(N[C@H]5CC[C@H](O)C5)n4)c3)no2)C1=O [Example 13, (R)-3-Hydroxy-3-(3-(3-(2-(((1 S,3S)-3-hydroxycyclopentyl)amino)pyrimidin-4-yl)phenyl)isoxazol-5-yl)-1-methylpyrrolidin-2-one]",> 500 nM
7,"CN1CC[C@@](O)(c2cc(-c3cccc(-c4ccnc(N[C@H]5CC[C@@H](O)C5)n4)c3)no2)C1=O [Example 14, (R)-3-Hydroxy-3-(3-(3-(2-(((1 S,3R)-3-hydroxycyclopentyl)amino)pyrimidin-4-yl)phenyl)isoxazol-5-yl)-1-methylpyrrolidin-2-one]",> 500 nM
8,"CN1CC[C@@](O)(c2cc(-c3cccc(-c4ccnc(Nc5cnn6c5OCCC6)n4)c3)no2)C1=O [Example 15, (R)-3-(3-(3-(2-((6,7-Dihydro-5H-pyrazolo[5,1-b][1,3]oxazin-3-yl)amino)pyrimidin-4-yl)phenyl)isoxazol-5-yl)-3-hydroxy-1-methylpyrrolidin-2-one]",> 500 nM
9,"COc1cn(C)nc1Nc1nccc(-c2cccc(-c3cc([C@]4(O)CCN(C)C4=O)on3)c2)n1 [Example 16, (R)-3-Hydroxy-3-(3-(3-(2-((4-methoxy-1-methyl-1H-pyrazol-3-yl)amino)pyrimidin-4-yl)phenyl)isoxazol-5-yl)-1-methylpyrrolidin-2-one]",> 500 nM
10,"COc1nn(C)cc1Nc1nccc(-c2cccc(-c3cc([C@]4(O)CCN(C)C4=O)on3)c2)n1 [Example 17, (R)-3-Hydroxy-3-(3-(3-(2-((3-methoxy-1-methyl-1H-pyrazol-4-yl)amino)pyrimidin-4-yl)phenyl)isoxazol-5-yl)-1-methylpyrrolidin-2-one]",50 to 500 nM
11,"CN1CC[C@@](O)(c2cc(-c3cccc(-c4ccnc(Nc5cnn6cccnc56)n4)c3)no2)C1=O [Example 18, (R)-3-Hydroxy-1-methyl-3-(3-(3-(2-(pyrazolo[1,5-a]pyrimidin-3-ylamino)pyrimidin-4-yl)phenyl)isoxazol-5-yl)pyrrolidin-2-one]",> 500 nM
12,"CN1CC[C@@](O)(c2cc(-c3cccc(-c4ccnc(N5CCCn6ncc(N)c65)n4)c3)no2)C1=O [Example 19, (R)-3-(3-(3-(2-(3-Amino-6,7-dihydropyrazolo[1,5-a]pyrimidin-4(5H)-)pyrimidin-4-yl)phenyl)isoxazol-5-yl)-3-hydroxy-1-methylpyrrolidin-2-one]",> 500 nM
13,"CN1CC[C@@](O)(c2cc(-c3cccc(-c4ccnc(Nc5cnn6c5NCCC6)n4)c3)no2)C1=O [Example 20, (R)-3-Hydroxy-1-methyl-3-(3-(3-(2-((4,5,6,7-tetrahydropyrazolo[1,5-a]pyrimidin-3-yl)amino)pyrimidin-4-yl)phenyl)isoxazol-5-yl)pyrrolidin-2-one]",> 500 nM
14,"CN1CC[C@@](O)(c2cc(-c3cccc(-c4ccnc(Nc5cnn(C)c5N)n4)c3)no2)C1=O [Example 21, (R)-3-(3-(3-(2-((5-Amino-1-methyl-1H-pyrazol-4-yl)amino)pyrimidin-4-yl)phenyl)isoxazol-5-yl)-3-hydroxy-1-methylpyrrolidin-2-one]",> 500 nM
15,"CN1CC[C@@](O)(c2cc(-c3cccc(-c4ccnc(Nc5cc6n(n5)CCOC6)n4)c3)no2)C1=O [Example 22, (R)-3-(3-(3-(2-((6,7-Dihydro-4H-pyrazolo[5,1-c][1,4]oxazin-2-yl)amino)pyrimidin-4-yl)phenyl)isoxazol-5-yl)-3-hydroxy-1-methylpyrrolidin-2-one]",> 500 nM
16,"CN1CCn2nc(Nc3nccc(-c4cccc(-c5cc([C@]6(O)CCN(C)C6=O)on5)c4)n3)cc2C1=O [Example 23, (R)-2-((4-(3-(5-(3-Hydroxy-1-methyl-2-oxopyrrolidin-3-yl)isoxazol-3-yl)phenyl)pyrimidin-2-yl)amino)-5-methyl-6,7-dihydropyrazolo[1,5-a]pyrazin-4(5H)-one]",50 to 500 nM
17,"Cc1ncccc1Nc1nccc(-c2cccc(-c3cc([C@]4(O)CCN(C)C4=O)on3)c2)n1 [Example 24, (R)-3-Hydroxy-1-methyl-3-(3-(3-(2-((2-methylpyridin-3-yl)amino)pyrimidin-4-yl)phenyl)isoxazol-5-yl)pyrrolidin-2-one]",50 to 500 nM
18,"CN1CC[C@@](O)(c2cc(-c3cccc(-c4ccnc(Nc5ccn(C)n5)n4)c3)no2)C1=O [Example 25, (R)-3-Hydroxy-1-methyl-3-(3-(3-(2-((1-methyl-1H-pyrazol-3-yl)amino)pyrimidin-4-yl)phenyl)isoxazol-5-yl)pyrrolidin-2-one]",50 to 500 nM
19,"CN1CC[C@@](O)(c2cc(-c3cccc(-c4ccnc(Nc5ccnn5C)n4)n3)no2)C1=O [Example 26, (R)-3-Hydroxy-1-methyl-3-(3-(6-(2-((1-methyl-1H-pyrazol-5-yl)amino)pyrimidin-4-yl)pyridin-2-yl)isoxazol-5-yl)pyrrolidin-2-one]",< 50 nM
20,"CN1CC(F)(F)[C@@](O)(c2cc(-c3cccc(-c4ccnc(Nc5ccn(C)n5)n4)n3)no2)C1=O [Example 27, (R)-4,4-Difluoro-3-hydroxy-1-methyl-3-(3-(6-(2-((1-methyl-1H-pyrazol-3-yl)amino)pyrimidin-4-yl)pyridin-2-yl)isoxazol-5-yl)pyrrolidin-2-one]",< 50 nM
21,"CN1CC[C@@](O)(c2cc(-c3cccc(-c4ccnc(Nc5cn(CC(F)F)nc5OC5CC5)n4)n3)no2)C1=O [Example 28, (R)-3-(3-(6-(2-((3-Cyclopropoxy-1-(2,2-difluoroethyl)-1H-pyrazol-4-yl)amino)pyrimidin-4-yl)pyridin-2-yl)isoxazol-5-yl)-3-hydroxy-1-methylpyrrolidin-2-one]",< 50 nM
22,"Cc1nn(C)cc1Nc1nccc(-c2cccc(-c3cc([C@]4(O)CCN(C)C4=O)on3)n2)n1 [Example 29, (R)-3-(3-(6-(2-((1,3-Dimethyl-1H-pyrazol-4-yl)amino)pyrimidin-4-yl)pyridin-2-yl)isoxazol-5-yl)-3-hydroxy-1-methylpyrrolidin-2-one]",< 50 nM
23,"CN1CC[C@@](O)(c2cc(-c3cccc(-c4ccnc(Nc5cnn(C)c5)n4)n3)on2)C1=O [Example 30, (R)-3-Hydroxy-1-methyl-3-(5-(6-(2-((1-methyl-1H-pyrazol-4-yl)amino)pyrimidin-4-yl)pyridin-2-yl)isoxazol-3-yl)pyrrolidin-2-one]",< 50 nM
24,"CN1CC[C@@](O)(c2cc(-c3cccc(-c4ccnc(-n5ccc(N)n5)n4)n3)no2)C1=O [Example 32, (R)-3-(3-(6-(2-(3-Amino-1H-pyrazol-1-yl)pyrimidin-4-yl)pyridin-2-yl)isoxazol-5-yl)-3-hydroxy-1-methylpyrrolidin-2-one]",> 500 nM
25,"CN1CC[C@@](O)(c2cc(-c3cccc(-c4ccnc(Nc5c[nH]nc5C(F)(F)F)n4)n3)no2)C1=O [Example 33, (R)-3-Hydroxy-1-methyl-3-(3-(6-(2-((3-(trifluoromethyl)-1H-pyrazol-4-yl)amino)pyrimidin-4-yl)pyridin-2-yl)isoxazol-5-yl)pyrrolidin-2-one]",> 500 nM
26,"Cc1cn[nH]c1Nc1nccc(-c2cccc(-c3cc([C@]4(O)CCN(C)C4=O)on3)n2)n1 [Example 34, (R)-3-Hydroxy-1-methyl-3-(3-(6-(2-((4-methyl-1H-pyrazol-5-yl)amino)pyrimidin-4-yl)pyridin-2-yl)isoxazol-5-yl)pyrrolidin-2-one]",50 to 500 nM
27,"Cc1cnn(-c2nccc(-c3cccc(-c4cc([C@]5(O)CCN(C)C5=O)on4)n3)n2)c1N [Example 35, (R)-3-(3-(6-(2-(5-Amino-4-methyl-1H-pyrazol-1-yl)pyrimidin-4-yl)pyridin-2-yl)isoxazol-5-yl)-3-hydroxy-1-methylpyrrolidin-2-one]",> 500 nM
28,"Cc1n[nH]cc1Nc1nccc(-c2cccc(-c3cc([C@]4(O)CCN(C)C4=O)on3)n2)n1 [Example 36, (R)-3-Hydroxy-1-methyl-3-(3-(6-(2-((3-methyl-1H-pyrazol-4-yl)amino)pyrimidin-4-yl)pyridin-2-yl)isoxazol-5-yl)pyrrolidin-2-one]",< 50 nM
